Data: ChEMBL document CHEMBL3352353, “Dicarba analogues of α-conotoxin RgIA. Structure, stability, and activity at potential pain targets” (J Med Chem, 2014)
The source made the active and inactive calls. No cut-off for these calls is given here. Positions of bridges follow the written chain, without caps; N, C: chain ends. Non-standard residues stand in square brackets, D forms with d. Residues, ends and D or L forms follow the SMILES beside them. AllylGly = C=CC[C@H](N)C(=O)O

Columns and labels:
[1] = biological target: T1, Nicotinic acetylcholine receptor alpha9/alpha10 (Rattus norvegicus) (UniProt P43144+Q9JLB5); test: Inhibition of rat alpha9alpha10 nAChR expressed in Xenopus oocytes assessed as inhibition of Ach-evoked current at 3 uM after 5 mins by voltage-clamp technique; format: cell-based
[2] = biological target: Nicotinic acetylcholine receptor alpha9/alpha10 (Rattus norvegicus, UniProt P43144+Q9JLB5); test: (§1) Inhibition of rat alpha9alpha10 nAChR expressed in Xenopus oocytes assessed as inhibition of Ach-evoked current after 5 mins by voltage-clamp technique; format: cell-based
Chain of Nicotinic acetylcholine receptor alpha9/alpha10 (P43144 whole entry): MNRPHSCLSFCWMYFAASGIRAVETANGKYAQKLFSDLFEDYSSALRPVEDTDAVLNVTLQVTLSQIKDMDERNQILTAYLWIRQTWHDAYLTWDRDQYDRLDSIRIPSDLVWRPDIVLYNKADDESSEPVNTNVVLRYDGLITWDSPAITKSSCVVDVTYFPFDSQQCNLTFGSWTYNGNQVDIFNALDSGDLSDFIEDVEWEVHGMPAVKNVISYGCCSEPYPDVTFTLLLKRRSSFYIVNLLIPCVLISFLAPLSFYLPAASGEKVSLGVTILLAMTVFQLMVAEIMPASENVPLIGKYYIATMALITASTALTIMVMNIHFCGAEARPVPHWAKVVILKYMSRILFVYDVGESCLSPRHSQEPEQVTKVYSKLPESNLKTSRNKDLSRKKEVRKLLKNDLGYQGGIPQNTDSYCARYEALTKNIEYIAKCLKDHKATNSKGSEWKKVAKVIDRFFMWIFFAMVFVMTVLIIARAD
Chain of Nicotinic acetylcholine receptor alpha9/alpha10 (Q9JLB5 whole entry): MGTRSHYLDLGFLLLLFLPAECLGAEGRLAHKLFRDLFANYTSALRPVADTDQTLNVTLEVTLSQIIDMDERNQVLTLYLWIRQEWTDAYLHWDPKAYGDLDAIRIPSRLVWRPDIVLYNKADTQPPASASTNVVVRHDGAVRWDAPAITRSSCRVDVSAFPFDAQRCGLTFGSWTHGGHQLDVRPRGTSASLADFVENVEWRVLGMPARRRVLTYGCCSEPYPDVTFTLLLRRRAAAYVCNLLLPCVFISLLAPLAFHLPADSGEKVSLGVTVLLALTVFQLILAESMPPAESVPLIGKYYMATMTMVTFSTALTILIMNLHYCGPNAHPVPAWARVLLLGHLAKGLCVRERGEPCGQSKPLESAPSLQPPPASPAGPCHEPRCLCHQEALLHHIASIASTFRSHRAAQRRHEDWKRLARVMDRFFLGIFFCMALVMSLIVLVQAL

[3] = biological target: T2, Neuronal acetylcholine receptor subunit alpha-7 (Homo sapiens, UniProt P36544); test: Inhibition of human alpha7 nAChR expressed in Xenopus oocytes assessed as inhibition of Ach-evoked current after 5 mins by voltage-clamp technique; format: cell-based
T2 sequence (P36544 whole entry): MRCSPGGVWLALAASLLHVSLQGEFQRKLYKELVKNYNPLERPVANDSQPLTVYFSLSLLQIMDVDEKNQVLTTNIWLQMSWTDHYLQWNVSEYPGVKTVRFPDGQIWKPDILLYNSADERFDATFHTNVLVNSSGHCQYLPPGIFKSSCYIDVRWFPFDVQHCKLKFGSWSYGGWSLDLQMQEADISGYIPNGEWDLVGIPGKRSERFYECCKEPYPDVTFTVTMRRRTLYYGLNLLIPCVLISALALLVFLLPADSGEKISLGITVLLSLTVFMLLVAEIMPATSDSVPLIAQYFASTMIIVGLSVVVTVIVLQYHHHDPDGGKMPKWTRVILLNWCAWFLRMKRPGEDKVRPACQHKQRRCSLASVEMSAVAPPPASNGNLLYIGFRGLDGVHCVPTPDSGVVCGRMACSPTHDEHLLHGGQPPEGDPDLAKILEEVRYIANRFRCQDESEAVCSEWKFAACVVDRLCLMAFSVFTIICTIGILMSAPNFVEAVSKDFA

[4] = biological target: T3, GABA-B receptor (Homo sapiens) (UniProt Q9UBS5+O75899); test: Inhibition of human GABAB R1/R2 receptor expressed in HEK293 cells co-expressing human Cav2.2 alpha1B/alpha2delta1/beta3 channel assessed as inhibition of depolarization-activated Ba2+ current at 1 uM by whole cell patch clamp technique relative to control; format: cell-based
[5] = biological target: Voltage-dependent N-type calcium channel subunit alpha-1B (Rattus norvegicus) (UniProt Q02294); test: Inhibition of N-type Ca channel in Wistar rat DRG neuron at 1 nM by whole cell patch clamp technique relative to control
Chain of Voltage-dependent N-type calcium channel subunit alpha-1B (Rattus norvegicus) (Q02294 whole entry, looked up): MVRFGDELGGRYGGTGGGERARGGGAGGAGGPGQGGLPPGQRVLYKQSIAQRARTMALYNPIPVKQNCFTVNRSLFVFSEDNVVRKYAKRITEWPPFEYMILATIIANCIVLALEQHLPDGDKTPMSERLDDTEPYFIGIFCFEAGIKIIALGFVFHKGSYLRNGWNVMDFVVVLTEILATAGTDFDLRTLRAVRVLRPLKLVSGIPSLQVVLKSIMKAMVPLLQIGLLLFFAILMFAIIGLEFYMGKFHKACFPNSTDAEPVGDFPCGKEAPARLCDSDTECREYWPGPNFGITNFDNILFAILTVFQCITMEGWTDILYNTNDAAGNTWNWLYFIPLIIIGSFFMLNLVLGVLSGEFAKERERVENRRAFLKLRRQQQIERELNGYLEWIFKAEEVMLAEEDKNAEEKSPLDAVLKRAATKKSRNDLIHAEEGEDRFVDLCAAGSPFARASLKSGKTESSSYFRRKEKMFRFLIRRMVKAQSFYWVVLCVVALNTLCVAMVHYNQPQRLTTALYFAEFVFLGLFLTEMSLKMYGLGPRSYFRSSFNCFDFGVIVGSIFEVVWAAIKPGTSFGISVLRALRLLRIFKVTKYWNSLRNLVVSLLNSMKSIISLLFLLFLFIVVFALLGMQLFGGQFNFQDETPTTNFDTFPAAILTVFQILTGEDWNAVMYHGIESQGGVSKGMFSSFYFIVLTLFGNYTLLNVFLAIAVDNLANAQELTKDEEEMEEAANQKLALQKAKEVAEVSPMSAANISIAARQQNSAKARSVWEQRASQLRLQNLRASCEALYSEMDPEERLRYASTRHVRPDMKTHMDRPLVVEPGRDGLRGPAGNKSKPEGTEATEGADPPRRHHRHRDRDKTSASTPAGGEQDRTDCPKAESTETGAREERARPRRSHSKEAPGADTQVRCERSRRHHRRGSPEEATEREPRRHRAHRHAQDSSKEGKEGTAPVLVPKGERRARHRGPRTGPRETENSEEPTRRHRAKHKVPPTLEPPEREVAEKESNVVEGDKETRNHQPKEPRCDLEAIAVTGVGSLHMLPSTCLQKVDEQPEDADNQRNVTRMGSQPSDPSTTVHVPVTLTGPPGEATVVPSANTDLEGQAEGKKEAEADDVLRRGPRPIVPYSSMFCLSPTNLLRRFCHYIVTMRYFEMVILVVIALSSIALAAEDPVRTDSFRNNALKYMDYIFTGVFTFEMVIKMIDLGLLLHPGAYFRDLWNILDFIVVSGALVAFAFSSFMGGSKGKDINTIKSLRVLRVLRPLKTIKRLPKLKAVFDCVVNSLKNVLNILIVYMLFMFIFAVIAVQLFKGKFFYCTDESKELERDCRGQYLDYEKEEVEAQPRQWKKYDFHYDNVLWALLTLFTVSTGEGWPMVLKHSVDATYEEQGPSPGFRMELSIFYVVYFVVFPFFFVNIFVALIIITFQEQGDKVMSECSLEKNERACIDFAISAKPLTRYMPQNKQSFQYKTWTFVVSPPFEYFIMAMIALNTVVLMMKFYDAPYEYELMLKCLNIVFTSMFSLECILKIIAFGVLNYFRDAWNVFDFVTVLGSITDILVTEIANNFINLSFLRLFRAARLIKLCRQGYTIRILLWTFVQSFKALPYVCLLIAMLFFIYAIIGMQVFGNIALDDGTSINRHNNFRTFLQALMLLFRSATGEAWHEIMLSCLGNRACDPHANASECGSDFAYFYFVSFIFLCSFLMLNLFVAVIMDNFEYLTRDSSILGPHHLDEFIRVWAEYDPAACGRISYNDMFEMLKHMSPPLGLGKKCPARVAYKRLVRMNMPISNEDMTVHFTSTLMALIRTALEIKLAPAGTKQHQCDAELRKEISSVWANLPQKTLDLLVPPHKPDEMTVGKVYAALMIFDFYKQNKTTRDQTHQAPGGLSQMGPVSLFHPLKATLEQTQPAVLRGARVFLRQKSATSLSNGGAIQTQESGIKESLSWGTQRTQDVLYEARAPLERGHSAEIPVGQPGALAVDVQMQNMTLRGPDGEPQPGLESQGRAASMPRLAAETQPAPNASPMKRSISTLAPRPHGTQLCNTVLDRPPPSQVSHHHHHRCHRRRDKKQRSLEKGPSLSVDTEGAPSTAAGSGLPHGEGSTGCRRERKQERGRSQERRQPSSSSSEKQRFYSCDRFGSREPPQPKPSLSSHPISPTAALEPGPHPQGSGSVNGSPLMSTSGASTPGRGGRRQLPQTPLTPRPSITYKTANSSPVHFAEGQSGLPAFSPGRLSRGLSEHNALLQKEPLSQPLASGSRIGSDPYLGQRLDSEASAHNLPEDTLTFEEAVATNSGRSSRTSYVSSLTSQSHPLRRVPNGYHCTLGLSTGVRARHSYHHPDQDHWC

[6] = biological target: Voltage-dependent N-type calcium channel subunit alpha-1B (Rattus norvegicus) (UniProt Q02294); test: Inhibition of N-type Ca channel in Wistar rat DRG neuron at 100 nM by whole cell patch clamp technique relative to control
[7] = biological target: T1, Nicotinic acetylcholine receptor alpha9/alpha10 (Rattus norvegicus); test: Inhibition of rat alpha9alpha10 nAChR expressed in Xenopus oocytes assessed as inhibition of Ach-evoked current at 30 uM after 5 mins by voltage-clamp technique; format: cell-based
[8] = biological target: T3, GABA-B receptor (Homo sapiens); test: Inhibition of human GABAB R1/R2 receptor expressed in HEK293 cells co-expressing human Cav2.2 alpha1B/alpha2delta1/beta3 channel assessed as inhibition of depolarization-activated Ba2+ current at 200 nM by whole cell patch clamp technique relative to control; format: cell-based
[9] = biological target: T1, Nicotinic acetylcholine receptor alpha9/alpha10 (Rattus norvegicus); test: as §1; format: cell-based
[10] = biological target: T2, Neuronal acetylcholine receptor subunit alpha-7; test: Inhibition of human alpha7 nAChR expressed in Xenopus oocytes assessed as inhibition of Ach-evoked current at 3 uM after 5 mins by voltage-clamp technique; format: cell-based
[11] = biological target: T3, GABA-B receptor (Homo sapiens); test: Inhibition of human GABAB R1/R2 receptor expressed in HEK293 cells co-expressing human Cav2.2 alpha1B/alpha2delta1/beta3 channel assessed as inhibition of depolarization-activated Ba2+ current at 1 uM followed by compound washout by whole cell patch clamp technique relative to control; format: cell-based
[12] = biological target: T4, Voltage-dependent N-type calcium channel subunit alpha-1B/Voltage-dependent calcium channel subunit alpha-2/delta-1/Voltage-dependent L-type calcium channel subunit beta-3 (Homo sapiens) (UniProt P54289+Q00975+P54284); test: Inhibition of human GABAB R1/R2 receptor expressed in HEK293 cells co-expressing human Cav2.2 alpha1B/alpha2delta1/beta3 channel assessed as inhibition of depolarization-activated Ba2+ current at 50 uM followed by compound washout by whole cell patch clamp technique relative to control; format: cell-based
[13] = biological target: T4, Voltage-dependent N-type calcium channel subunit alpha-1B/Voltage-dependent calcium channel subunit alpha-2/delta-1/Voltage-dependent L-type calcium channel subunit beta-3 (Homo sapiens); test: Inhibition of human Cav2.2 alpha1B/alpha2delta1/beta3 channel expressed in HEK293 cells assessed as inhibition of depolarization-activated Ba2+ current at 1 uM by whole cell patch clamp technique relative to control; format: cell-based
[14] = biological target: T3, GABA-B receptor (Homo sapiens); test: Inhibition of human GABAB R1/R2 receptor expressed in HEK293 cells co-expressing human Cav2.2 alpha1B/alpha2delta1/beta3 channel assessed as inhibition of depolarization-activated Ba2+ current depolarization-activated Ba2+ current at 50 uM by whole cell patch clamp technique relative to control; format: cell-based
[15] = biological target: T3, GABA-B receptor (Homo sapiens); test: Inhibition of human GABAB R1/R2 receptor expressed in HEK293 cells co-expressing human Cav2.2 alpha1B/alpha2delta1/beta3 channel assessed as inhibition of depolarization-activated Ba2+ current by whole cell patch clamp technique relative to control; format: cell-based
[16] = Metabolic stability in human serum assessed as compound remaining at 3 mM after 24 hrs by RP-HPLC analysis; format: ADME, cell-free; details: read-out: Stability
[17] = Metabolic stability in human serum assessed as compound remaining at 3 mM after 1 hr by RP-HPLC analysis; format: ADME, cell-free; details: read-out: Stability

Compound	inhibition [1]	IC50 [2]	IC50 [3]	inhibition [4]	inhibition [5]	inhibition [6]	inhibition [7]	other results
N=C(N)NCCC[C@H](NC(=O)[C@@H]1C/C=C/C[C@@H]2NC(=O)[C@@H](NC(=O)CN)CSSC[C@H](NC(=O)[C@H](CCCNC(=N)N)NC(=O)[C@@H]3CCCN3C(=O)[C@H](CC(=O)O)NC(=O)[C@H](CO)NC2=O)C(=O)N[C@@H](CCCNC(=N)N)C(=O)N[C@@H](Cc2ccc(O)cc2)C(=O)N[C@@H](CCCNC(=N)N)C(=O)N1)C(=O)O (H-GC[AllylGly]SDPRCRYR[AllylGly]R-OH; disulfide 2-8; staple (E) 3-12)	35.4%	1150 nM	3950 nM	inactive	inactive			
N=C(N)NCCC[C@H](NC(=O)[C@@H]1CSSC[C@@H]2NC(=O)[C@@H](NC(=O)CN)C/C=C/C[C@H](NC(=O)[C@H](CCCNC(=N)N)NC(=O)[C@@H]3CCCN3C(=O)[C@H](CC(=O)O)NC(=O)[C@H](CO)NC2=O)C(=O)N[C@@H](CCCNC(=N)N)C(=O)N[C@@H](Cc2ccc(O)cc2)C(=O)N[C@@H](CCCNC(=N)N)C(=O)N1)C(=O)O						Active	inactive	
N=C(N)NCCC[C@H](NC(=O)[C@@H]1CSSC[C@@H]2NC(=O)[C@@H](NC(=O)CN)CSSC[C@H](NC(=O)[C@H](CCCNC(=N)N)NC(=O)[C@@H]3CCCN3C(=O)[C@H](CC(=O)O)NC(=O)[C@H](CO)NC2=O)C(=O)N[C@@H](CCCNC(=N)N)C(=O)N[C@@H](Cc2ccc(O)cc2)C(=O)N[C@@H](CCCNC(=N)N)C(=O)N1)C(=O)O			3300 nM			60.6%		inhibition [8]: 20%; inhibition [9]: Dose-dependent effect; inhibition [3]: Dose-dependent effect
N=C(N)NCCC[C@H](NC(=O)[C@@H]1C/C=C\C[C@@H]2NC(=O)[C@@H](NC(=O)CN)CSSC[C@H](NC(=O)[C@H](CCCNC(=N)N)NC(=O)[C@@H]3CCCN3C(=O)[C@H](CC(=O)O)NC(=O)[C@H](CO)NC2=O)C(=O)N[C@@H](CCCNC(=N)N)C(=O)N[C@@H](Cc2ccc(O)cc2)C(=O)N[C@@H](CCCNC(=N)N)C(=O)N1)C(=O)O (H-GC[AllylGly]SDPRCRYR[AllylGly]R-OH; disulfide 2-8; staple (Z) 3-12)	31.5%	1470 nM			inactive			inhibition [10]: inactive
N=C(N)NCCC[C@H](NC(=O)[C@@H]1CSSC[C@@H]2NC(=O)[C@@H](NC(=O)CN)C/C=C\C[C@H](NC(=O)[C@H](CCCNC(=N)N)NC(=O)[C@@H]3CCCN3C(=O)[C@H](CC(=O)O)NC(=O)[C@H](CO)NC2=O)C(=O)N[C@@H](CCCNC(=N)N)C(=O)N[C@@H](Cc2ccc(O)cc2)C(=O)N[C@@H](CCCNC(=N)N)C(=O)N1)C(=O)O				35%		Active	inactive	inhibition [11]: Active; inhibition [12]: inactive; inhibition [13]: inactive; inhibition [14]: Active; inhibition [15]: Dose-dependent effect; remaining at 24 h, 3000 µM [16]: 2%; remaining at 1 h, 3000 µM [17]: 30%
